# Test results as given in US8299086B2, “Pyrimidine derivatives” (Actelion Pharmaceuticals Ltd., priority 2007, dated 2012).
# Molecular target: recombinant human S1P1 receptor (Homo sapiens, UniProt P21453)
# Test: GTPγS assay to determine EC50 values
# Assay type: biochemical
# Conditions: 35S-GTPγS binding, membranes of CHO cells expressing recombinant human S1P1 receptor
# Experimental: GTPγS assay to determine EC50 values
# GTPγS binding assays are performed in 96 well microtiter plates (Nunc, 442587) in a final volume of 200 μl, using membrane preparations of CHO cells expressing recombinant human S1P1 receptor. Assay conditions are 20 mM Hepes (Fluka, 54461), 100 mM NaCl (Fluka, 71378), 5 mM MgCl2 (Fluka, 63064), 0.1% BSA (Calbiochem, 126609), 1 μM GDP (Sigma, G-7127), 2.5% DMSO (Fluka, 41644), […] ^35S-GTPγS (Amersham Biosciences, SJ1320). The pH is 7.4. Test compounds are dissolved and diluted in 100% DMSO and pre-incubated at room temperature for 30 min in 150 μl of the above assay buffer, in the absence of ^35S-GTPγS. After addition of 50 μl of ^35S-GTPγS, the assay is incubated for 1 h at rt. The assay is terminated by transfer of the reaction mixture to a Multiscreen plate (Millipore, MAHFC1H60) using a cell harvester from Packard Biosciences, and the plates are washed with ice-cold 10 mM Na2HPO4/NaH2PO4 (70%/30%), dried, sealed at the bottom and, after addition of 25 μl MicroScint20 (Packard Biosciences, order#6013621), sealed on the top. Membrane-bound ^35S-GTPγS is measured with a TopCount from Packard Biosciences.
# EC50 is the concentration of agonist inducing 50% of the maximal specific ^35S-GTPγS binding. Specific binding is determined by subtracting non-specific binding from maximal binding. Maximal binding is the amount of cpm bound to the Multiscreen plate in the presence of 10 μM of S1P. Non-specific binding is the amount of binding in the absence of an agonist in the assay.
# recombinant human S1P1 receptor, sequence (P21453 whole entry): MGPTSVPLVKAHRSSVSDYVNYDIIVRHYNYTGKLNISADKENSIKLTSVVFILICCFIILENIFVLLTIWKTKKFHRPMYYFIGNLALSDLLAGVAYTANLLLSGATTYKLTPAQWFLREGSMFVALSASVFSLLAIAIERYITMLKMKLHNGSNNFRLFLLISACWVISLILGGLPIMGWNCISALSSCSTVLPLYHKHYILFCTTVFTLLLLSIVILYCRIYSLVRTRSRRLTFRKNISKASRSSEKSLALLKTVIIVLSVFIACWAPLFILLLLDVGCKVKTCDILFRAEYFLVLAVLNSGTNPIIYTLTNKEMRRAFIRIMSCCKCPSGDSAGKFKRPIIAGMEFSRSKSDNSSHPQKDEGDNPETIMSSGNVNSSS
row,EC50,Compound
1,> 10000 nM,CCN(CC)c1nc(C)cc(-c2nc(-c3ccc(CC(=O)N4CCC[C@H]4C(=O)O)cc3)no2)n1 [Example 132]

# Same assay, conditions: 35S-GTPγS binding, membranes of CHO cells expressing recombinant human S1P1 receptor, pH 7.4
row,EC50,Compound
1,0.46 nM,"CCNc1nc(C)cc(-c2nc(-c3cc(C)c(OCC(O)CNC(=O)CO)c(C)c3)no2)n1 (racemic) [Example 4, rac-N-(3-{4-[5-(2-Ethylamino-6-methyl-pyrimidin-4-yl)-[1,2,4]oxadiazol-3-yl]-2,6-dimethyl-phenoxy}-2-hydroxy-propyl)-2-hydroxy-acetamide]"
2,0.88 nM,"Cc1cc(-c2nc(-c3cc(C)c(OCC(O)CNC(=O)CO)c(C)c3)no2)nc(NC(C)C)n1 (racemic) [Example 7, rac-N-(3-{4-[5-(2-Isopropylamino-6-methyl-pyrimidin-4-yl)-[1,2,4]oxadiazol-3-yl]-2,6-dimethyl-phenoxy}-2-hydroxy-propyl)-2-hydroxy-acetamide]"
3,26 nM,"CCCOc1nc(C)cc(-c2nc(-c3cc(C)c(OCC(O)CNC(=O)CO)c(C)c3)no2)n1 (racemic) [Example 14, rac-N-(3-{4-[5-(6-Methyl-2-propoxy-pyrimidin-4-yl)-[1,2,4]oxadiazol-3-yl]-2,6-dimethyl-phenoxy}-2-hydroxy-propyl)-2-hydroxy-acetamide]"
4,2.27 nM,"Cc1cc(-c2nc(-c3cc(C)c(OCC(O)CO)c(C)c3)no2)nc(NC(C)C)n1 (racemic) [Example 19, rac-3-{4-[5-(2-Isopropylamino-6-methyl-pyrimidin-4-yl)-[1,2,4]oxadiazol-3-yl]-2,6-dimethyl-phenoxy}-propane-1,2-diol]"
5,80.3 nM,"Cc1cc(-c2nc(-c3ccc(C(O)CN)cc3)no2)nc(NC(C)C)n1 (racemic) [Example 144, rac-2-Amino-1-{4-[5-(2-isopropylamino-6-methyl-pyrimidin-4-yl)-[1,2,4]oxadiazol-3-yl]-phenyl}-ethanol]"
6,25 nM,"Cc1cc(-c2nc(-c3ccc(CC(O)CO)cc3)no2)nc(NC(C)C)n1 (racemic) [Example 149, rac-3-{4-[5-(2-Isopropylamino-6-methyl-pyrimidin-4-yl)-[1,2,4]oxadiazol-3-yl]-phenyl}-propane-1,2-diol]"
7,1.2 nM,"CCc1cc(-c2noc(-c3cc(C)nc(NCC(C)C)n3)n2)cc(C)c1OC[C@@H](O)CNC(=O)CO [Example 2, N—((S)-3-{2-Ethyl-4-[5-(2-isobutylamino-6-methyl-pyrimidin-4-yl)-[1,2,4]oxadiazol-3-yl]-6-methyl-phenoxy}-2-hydroxy-propyl)-2-hydroxy-acetamide]"
8,0.17 nM,"CCc1cc(-c2noc(-c3cc(C)nc(NC4CC4)n3)n2)cc(C)c1OC[C@@H](O)CNC(=O)CO [Example 31, N—((S)-3-{4-[5-(2-cyclopropylamino-6-methyl-pyrimidin-4-yl)-[1,2,4]oxadiazol-3-yl]-2-ethyl-6-methyl-phenoxy}-2-hydroxy-propyl)-2-hydroxy-acetamide]"
9,1.37 nM,"CCc1cc(-c2noc(-c3cc(CC(C)C)nc(NC)n3)n2)cc(C)c1OC[C@@H](O)CNC(=O)CO [Example 35, N—((S)-3-{2-ethyl-4-[5-(6-isobutyl-2-methylamino-pyrimidin-4-yl)-[1,2,4]oxadiazol-3-yl]-6-methyl-phenoxy}-2-hydroxy-propyl)-2-hydroxy-acetamide]"
10,4.5 nM,"CCOc1nc(CC)cc(-c2nc(-c3cc(C)c(OC[C@@H](O)CNC(=O)CO)c(CC)c3)no2)n1 [Example 41, N—((S)-3-{4-[5-(2-ethoxy-6-ethyl-pyrimidin-4-yl)-[1,2,4]oxadiazol-3-yl]-2-ethyl-6-methyl-phenoxy}-2-hydroxy-propyl)-2-hydroxy-acetamide]"
11,0.97 nM,"CCc1cc(-c2noc(-c3cc(CC(C)C)nc(OC)n3)n2)cc(C)c1OC[C@@H](O)CNC(=O)CO [Example 43, N—((S)-3-{2-ethyl-4-[5-(6-isobutyl-2-methoxy-pyrimidin-4-yl)-[1,2,4]oxadiazol-3-yl]-6-methyl-phenoxy}-2-hydroxy-propyl)-2-hydroxy-acetamide]"
12,3.7 nM,Cc1cc(-c2nc(-c3cc(C)c(OC[C@@H](O)CNC(=O)CO)c(C)c3)no2)nc(OCC(C)C)n1 [Example 46]
13,1 nM,"Cc1cc(-c2nc(-c3cc(C)c(OC[C@@H](O)CNC(=O)CO)c(Cl)c3)no2)nc(OC(C)C)n1 [Example 54, N—((S)-3-{2-chloro-4-[5-(2-isopropoxy-6-methyl-pyrimidin-4-yl)-[1,2,4]oxadiazol-3-yl]-6-methyl-phenoxy}-2-hydroxy-propyl)-2-hydroxy-acetamide]"
14,0.25 nM,"CCc1cc(-c2noc(-c3cc(C)nc(NC4CC4)n3)n2)cc(C)c1OC[C@@H](O)CO [Example 63, (S)-3-{4-[5-(2-cyclopropylamino-6-methyl-pyrimidin-4-yl)-[1,2,4]oxadiazol-3-yl]-2-ethyl-6-methyl-phenoxy}-propane-1,2-diol]"
15,5.8 nM,"COc1cc(-c2noc(-c3cc(C)nc(NC(C)C)n3)n2)cc(C)c1OC[C@@H](O)CO [Example 78, (S)-3-{4-[5-(2-isopropylamino-6-methyl-pyrimidin-4-yl)-[1,2,4]oxadiazol-3-yl]-2-methoxy-6-methyl-phenoxy}-propane-1,2-diol]"
16,7.4 nM,"Cc1cc(-c2nc(-c3cc(C)c(OC[C@@H](O)CO)c(Cl)c3)no2)nc(OC(C)C)n1 [Example 81, (S)-3-{2-chloro-4-[5-(2-isopropoxy-6-methyl-pyrimidin-4-yl)-[1,2,4]oxadiazol-3-yl]-6-methyl-phenoxy}-propane-1,2-diol]"
17,5.7 nM,"CCc1cc(-c2nc(-c3cc(C)nc(N(C)CC(C)C)n3)no2)cc(C)c1OC[C@@H](O)CNC(=O)CO [Example 86, (S)—N-[3-(2-Ethyl-4-{3-[2-(isobutyl-methyl-amino)-6-methyl-pyrimidin-4-yl]-[1,2,4]oxadiazol-5-yl}-6-methyl-phenoxy)-2-hydroxy-propyl]-2-hydroxy-acetamide]"
18,39.4 nM,CCc1cc(-c2nnc(-c3cc(C)nc(OC(C)C)n3)o2)cc(C)c1OC[C@@H](O)CNC(=O)CO [Example 89]
19,3730 nM,CCc1cc(-c2nnc(-c3cc(C)nc(OCC(C)C)n3)s2)cc(C)c1OC[C@@H](O)CO [Example 99]
20,5.1 nM,"CCc1cc(-c2noc(-c3cc(C)nc(N(CC)CC)n3)n2)cc(C)c1OC(CO)CO [Example 100, 2-{4-[5-(2-Diethylamino-6-methyl-pyrimidin-4-yl)-[1,2,4]oxadiazol-3-yl]-2-ethyl-6-methyl-phenoxy}-propane-1,3-diol]"
21,72.1 nM,CCc1cc(-c2noc(-c3cc(C)nc(N(CC)CC)n3)n2)cc(C)c1OCCNCCO [Example 103]
22,8.4 nM,CCc1cc(-c2noc(-c3cc(C)nc(N(CC)CC)n3)n2)cc(C)c1OCCN1CCC(C(=O)O)C1 (stereo not shown) [Example 109]
23,12.5 nM,CCc1cc(-c2noc(-c3cc(C)nc(N(CC)CC)n3)n2)cc(C)c1OCCNC(=O)CN [Example 112]
24,22.3 nM,CCc1cc(-c2noc(-c3cc(C)nc(N(CC)CC)n3)n2)cc(C)c1OC[C@@H](O)CNS(=O)(=O)CC [Example 117]
25,1.4 nM,"CCc1cc(-c2noc(-c3cc(C)nc(N(CC)CC)n3)n2)cc(C)c1OC[C@@H](O)CNCCC(=O)O [Example 126, 3-((S)-3-{4-[5-(2-diethylamino-6-methyl-pyrimidin-4-yl)-[1,2,4]oxadiazol-3-yl]-2-ethyl-6-methyl-phenoxy}-2-hydroxy-propylamino)-propionic acid]"
26,74.4 nM,"CCN(CC)c1nc(C)cc(-c2nc(-c3ccc(CCNS(C)(=O)=O)cc3)no2)n1 [Example 128, N-(2-{4-[5-(2-Diethylamino-6-methyl-pyrimidin-4-yl)-[1,2,4]oxadiazol-3-yl]-phenyl}-ethyl)-methanesulfonamide]"
27,44.6 nM,CCN(CC)c1nc(C)cc(-c2nc(-c3ccc(CC(=O)N4CC(C(=O)O)C4)cc3)no2)n1 [Example 131]
28,2 nM,CCc1cc(-c2noc(-c3cc(C)nc(NC(C)C)n3)n2)cc(C)c1CCC(=O)NCCC(=O)O [Example 134]
29,12.6 nM,CCc1cc(-c2noc(-c3cc(C)nc(NC(C)C)n3)n2)cc(C)c1CCC(=O)NCC(O)CO (stereo not shown) [Example 140]
30,331 nM,Cc1cc(-c2nc(-c3ccc(CC(O)CNCCO)cc3)no2)nc(NC(C)C)n1 (stereo not shown) [Example 154]
